Data: the supplement of paper PMC10307832

How the values were obtained:
Test in all cases: relative viability (nuclei count vs DMSO), 5 days (fraction); higher = more cells survive
DM3189 + Trametinib = compound: C1CN(CCN1)C2=CC=C(C=C2)C3=CN4C(=C(C=N4)C5=CC=NC6=CC=CC=C56)N=C3 [DM3189] + CC(=O)Nc1cccc(-n2c(=O)n(C3CC3)c(=O)c3c(Nc4ccc(I)cc4F)n(C)c(=O)c(C)c32)c1 [Trametinib] (partner 0.02 µM)
Outline: (§1)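 The day after seeding in 1536-well plates, lung cancer cell lines were treated by pin tool with a single drug, or with a fixed anchor-drug dose together with five library-drug doses (not always all listed) in √10 steps. After 5 days, a combined fix-and-stain solution (final 0.05% Triton X-100, 1% formaldehyde, 1 ug/ml Hoechst) was added. Nuclei counted on 4× images gave relative viability as treated counts over vehicle counts, reported as the median of duplicate plates.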

DM3189 + Navitoclax = compound: C1CN(CCN1)C2=CC=C(C=C2)C3=CN4C(=C(C=N4)C5=CC=NC6=CC=CC=C56)N=C3 [DM3189] + CC1(C)CCC(c2ccc(Cl)cc2)=C(CN2CCN(c3ccc(C(=O)NS(=O)(=O)c4ccc(N[C@H](CCN5CCOCC5)CSc5ccccc5)c(S(=O)(=O)C(F)(F)F)c4)cc3)CC2)C1 [Navitoclax] (partner 0.5 µM)
Outline: as §1

DM3189 + Foretinib = compound: C1CN(CCN1)C2=CC=C(C=C2)C3=CN4C(=C(C=N4)C5=CC=NC6=CC=CC=C56)N=C3 [DM3189] + COc1cc2c(Oc3ccc(NC(=O)C4(C(=O)Nc5ccc(F)cc5)CC4)cc3F)ccnc2cc1OCCCN1CCOCC1 [Foretinib] (partner 0.25 µM)
Outline: as §1

DM3189 + Lapatinib = compound: C1CN(CCN1)C2=CC=C(C=C2)C3=CN4C(=C(C=N4)C5=CC=NC6=CC=CC=C56)N=C3 [DM3189] + CS(=O)(=O)CCNCc1ccc(-c2ccc3ncnc(Nc4ccc(OCc5cccc(F)c5)c(Cl)c4)c3c2)o1 [Lapatinib] (partner 2 µM)
Outline: as §1

DM3189 + Dasatinib = compound: C1CN(CCN1)C2=CC=C(C=C2)C3=CN4C(=C(C=N4)C5=CC=NC6=CC=CC=C56)N=C3 [DM3189] + Cc1nc(Nc2ncc(C(=O)Nc3c(C)cccc3Cl)s2)cc(N2CCN(CCO)CC2)n1 [Dasatinib] (partner 0.075 µM)
Outline: as §1

Cell Line	relative viability (DM3189 + Trametinib; first compound 0.08 µM)	relative viability (DM3189 + Trametinib; first compound 0.253 µM)	relative viability (DM3189 + Trametinib; first compound 0.8 µM)	relative viability (DM3189 + Trametinib; first compound 2.53 µM)	relative viability (DM3189 + Navitoclax; first compound 0.08 µM)	relative viability (DM3189 + Navitoclax; first compound 0.253 µM)	relative viability (DM3189 + Navitoclax; first compound 0.8 µM)	relative viability (DM3189 + Navitoclax; first compound 2.53 µM)	relative viability (DM3189 + Foretinib; first compound 0.08 µM)	relative viability (DM3189 + Foretinib; first compound 0.253 µM)	relative viability (DM3189 + Foretinib; first compound 0.8 µM)	relative viability (DM3189 + Foretinib; first compound 2.53 µM)	relative viability (DM3189 + Lapatinib; first compound 0.08 µM)	relative viability (DM3189 + Lapatinib; first compound 0.253 µM)	relative viability (DM3189 + Lapatinib; first compound 0.8 µM)	relative viability (DM3189 + Lapatinib; first compound 2.53 µM)	relative viability (DM3189 + Dasatinib; first compound 0.08 µM)	relative viability (DM3189 + Dasatinib; first compound 0.253 µM)	relative viability (DM3189 + Dasatinib; first compound 0.8 µM)	relative viability (DM3189 + Dasatinib; first compound 2.53 µM)
LXF-289	0.74	0.686	0.692	0.694	0.983	0.927	0.932	1.07	0.982	0.963	0.987	1.02	0.9	0.934	0.868	0.981	0.264	0.197	0.189	0.223
NCI-H23	0.409	0.352	0.324	0.442	0.917	0.794	0.742	0.741	1.01	0.861	0.882	0.982	1.32	0.888	0.994	1.19	0.878	0.713	0.716	0.749
NCI-H322M	0.532	0.518	0.517	0.511	1.33	1.25	1.28	1.52	0.942	0.944	0.886	0.774	0.651	0.633	0.508	0.603	0.268	0.251	0.235	0.218
NCI-H460	0.341	0.242	0.154	0.241	1.2	1.18	0.996	0.904	0.951	1.03	0.995	1.34	1.45	1.03	0.825	0.235	0.728	0.532	0.47	0.666
NCI-H520	0.672	0.413	0.43	0.321	1	0.728	0.752	0.628	0.713	0.554	0.62	0.631	0.902	0.679	0.644	0.42	0.24	0.219	0.258	0.197
NCI-H596	0.814	0.842	0.901	0.847	1.01	1.09	0.917	1.06	1.12	0.955	0.695	1.06	1.19	1.06	0.799	0.99	0.747	0.71	0.497	0.609
NCI-H647	0.488	0.399	0.378	0.412	1.26	0.959	0.767	0.657	1.06	1.13	1.08	1.01	1.36	0.823	0.622	0.463	0.264	0.193	0.215	0.157
NCI-H727	0.416	0.433	0.445	0.47	0.461	0.373		0.511	0.792	0.821	0.668	0.818	0.829	0.626		0.781	0.364	0.336		0.299
NCI-H838	0.57	0.454	0.388	0.496	1.15	1.09	0.904	1.23	0.951	0.891	0.689	0.895	1.1	0.867	0.65	0.897	0.346	0.303	0.261	0.274
NCI-H1355	0.408	0.429	0.33	0.421	0.926	0.953	0.819	0.951	0.987	0.968	0.91	0.979	1.07	0.972	0.819	0.919	0.788	0.706	0.474	0.633
NCI-H1395	0.902	1.03		1.01	1.22	0.958	0.74	1.17	0.896	0.929	0.831	1.03	1.1	0.92	0.724	0.896	0.461	0.39	0.397	0.415
NCI-H1437	0.63	0.577	0.65	0.696	0.994	1.1	1.06	1.05	1.29	1.33	1.33	1.33	0.793	0.767	0.765	0.852	0.434	0.395	0.384	0.385
NCI-H1650	0.749	0.608	0.677	0.738	1.24	1.11	1.21	1.13	1.04	1.18	1.21	1.12	0.838	0.806	0.71	0.777	0.333	0.391	0.304	0.316
NCI-H1651	0.867	0.793	0.813	0.937	1.17	1.13	1.13	0.928	0.83	0.716	0.831	0.827	1.08	0.852	0.826	0.984	0.386	0.571	0.58	0.462
NCI-H1666	1.03	0.951	0.863		1.11	1.09	0.895	1.17	1.02	0.97	1.02	0.93	0.789	0.736	0.51	0.712	0.884	0.862	0.925	0.715
NCI-H1734	0.651	0.623	0.652	0.685	0.903	0.81	0.774	0.844	0.888	0.829	0.756	0.823	1.07	0.987	0.961	0.939	0.476	0.46	0.499	0.414
NCI-H1755	0.786	0.801	0.725	0.836	0.926	0.904	0.701	0.965	0.914	0.855	0.718	0.826	1.07	0.937	0.811	0.936	0.429	0.401	0.388	0.411
NCI-H1793	0.507	0.603	0.532	0.742	0.422	0.396	0.421	0.478	0.768	0.847	0.905	0.783	0.653	0.773	1.01	0.711	0.423	0.368	0.371	0.361
NCI-H1915	0.325	0.292	0.305	0.307	0.772	0.777	0.729	0.857	1.09	1.07	0.875	1.03	1	0.867	0.705	0.737	0.46	0.317	0.289	0.286
NCI-H1944	0.463	0.422	0.42	0.413	1.07	1.03		1.15	0.93	0.81		0.88	0.884	0.765		0.803	0.232	0.217		0.219
NCI-H1975	0.37	0.367	0.316	0.299	1.16	1.08	0.858	0.821	1.02	0.871	0.898	0.782	1.15	0.952	0.725	0.764	0.421	0.357	0.314	0.332
NCI-H1993	0.504	0.501	0.641	0.486		0.883	0.646	0.999	0.766	0.744	0.672	0.907		0.533	0.722	0.746	0.657	0.552	0.505	0.504
NCI-H2009	0.276	0.268	0.263	0.23	1.17	1.19	1.06	1.23	1.22	1.16	1.14	1.25	1.13	0.888	0.684	0.916	0.287	0.267	0.263	0.244
NCI-H2023	0.469	0.534	0.532	0.374	0.992	1.04	0.909	0.842	0.938	0.867	0.857	0.552	1.1	0.739	0.503	0.286	0.781	0.595	0.363	0.46
NCI-H2085	0.521	0.613	0.598	0.668	1.2	1.16	1.19	1.11	0.982	1.02	0.925	1.01	0.806	0.77	0.765	0.848	0.28	0.274	0.318	0.28
NCI-H2087	0.24	0.17	0.228	0.219	1.09	0.933	1.04	1.08	1.28	1.18	1.07	0.969	1.27	0.871	0.846	1.06	0.97	0.77	0.784	0.768
NCI-H2126	0.609	0.534	0.509	0.524	0.827	0.873	0.756	0.861	1.14	1.11	1.18	1.16	0.869	0.775	0.673	0.732	0.742	0.568	0.446	0.503
